In US20100256040A1 (priority 2001, published 2010):
Read-outs that look alike come from different tables or passages of the source. Where a SMILES comes first, the peptide text is derived from it. Where no end group is shown, it is not given here.

Assays:
[1] = system: HIV-1; assay: microbe, parasite or virus in culture
Description: Fresh human blood was obtained commercially from Interstate Blood Bank, Inc. (Memphis, Tenn.). The lymphotropic clinical isolate HIV-1ROJO was obtained from a pediatric patient attending the AIDS Clinic at the University of Alabama at Birmingham. The laboratory-adapted HIV-1IIIB strain was propagated and tittered in fresh human PBMCs; pre-titered aliquots of HIV-1ROJO and Hiv-1IIIB were removed from the freezer (−80° C.) and thawed rapidly to room temperature in a biological safety cabinet immediately before use. Phytohemagglutinin (PHA-P) was obtained from Sigma (St. Louis, Mo.) and recombinant IL-2 was obtained from Amgen (San Francisco, Calif.).
Fresh human PBMCs were isolated from screened donors, seronegative for HIV and HBV. Leukophoresed blood was diluted 1:1 with Dulbecco's phosphate buffered saline (PBS), layered over 14 mL of Ficoll-Hypaque density gradient in a 50 mL centrifuge tube and then centrifuged for 30 minutes at 600×g. Banded PBMCs were aspirated from the resulting interface and subsequently washed 2× with PBS by low speed centrifugation. After the final wash, cells were enumerated by trypan blue exclusion and re-suspended at 1×10^7 cells/mL in RPMI 1640 supplemented with 15% Fetal Bovine Serum (FBS), 2 mM L-glutamine, 4 μg/mL PHA-P. The cells were allowed to incubate for 48-72 hours at 37° C. After incubation, PBMCs were centrifuged and reset in RPMI 1640 with 15% FBS, 2 mM L-glutamine, 100 U/ml penicillin, 100 μg/mL streptomycin, 10 μg/mL gentamycin, and 20 U/mL recombinant human IL-2. PBMCs were maintained in this medium at a concentration of 1-2×10^6 cells/mL with biweekly medium changes until used in the assay protocol.
For the standard PBMC assay, PHA-P stimulated cells from at least two normal donors were pooled, diluted in fresh medium to a final concentration of 1×10^6 cells/mL, and plated in the interior wells of 96 well round bottom microplate at 50 μL/well (5×10^4 cells/well). Test drug dilutions were prepared at a 2× concentration in microtiter tubes and 100 μL of each concentration was placed in appropriate wells in a standard format. 50 μl, of a predetermined dilution of virus stock was placed in each test well (final MOI≈0.1). Wells with cells and virus alone were used for virus control. Separate plates were prepared identically without virus for drug cytotoxicity studies using an XTT assay system. The PBMC cultures were maintained for seven days following infection, at which time cell-free supernate samples were collected and assayed for reverse transcriptase activity as described below.
A microtiter based reverse transcriptase (RT) reaction was utilized. See Buckheit et al., AIDS Research and Human Retroviruses 7:295-302 (1991). Tritiated thymidine triphosphate (NEN) (TTP) was resuspended in distilled H2O at 5 Ci/ml. Poly rA and oligo dT were prepared as a stock solution which was kept at −20° C. The RT reaction buffer was prepared fresh on a daily basis and consists of 125 μl 1M EGTA, 125 μl dH2O, 110 μl 10% SDS, 50 μl 1M Tris (pH 7.4), 50 μl 1M DTT, and 40 μl 1M MgCL2. These three solutions were mixed together in a ratio of 2 parts TTP, 1 part poly rA:oligo dT, and 1 part reaction buffer. Ten microliters of this reactions mixture was placed at a round bottom microtiter plate and 15 μl of virus containing supernatant was added and mixed. The plate was incubated at 37° C. in a water bath with a solid support to prevent submersion of the plate and incubated for 60 minutes. Following reaction, the reaction volume was spotted onto pieces of DE81 paper, washed 5 times 5 minutes each in a 5% sodium phosphate buffer, 2 times 1 minute each in distilled water, 2 times for 1 minute each in 70% ethanol, and then dried. Opti-Fluor-O (Packard) was added to each sample and incorporated radioactivity was quantified utilizing a Wallac 1450 MicroBeta Plus liquid scintillation counter.

[2] = Cytotoxicity measurement by MTS staining in PBMC cultures; format: cell-based; conditions: human
Description: At assay termination the assay plates were stained with the soluble tetrazolium-based dye MTS (CellTiter Reagent, Promega) to determine cell viability and quantify compound toxicity. MTS is metabolized by the mitochondria enzymes of metabolically active cells to yield a soluble formazan product, allowing the rapid quantitative analysis cell viability and compound cytotoxicity. […] At termination of the assay, 20 μl of MTS reagent was added per well. The wells were incubated overnight for the HIV cytoprotection assay at 37° C. The incubation intervals were chosen based on empirically determined times for optimal dye reduction in each cell type. Adhesive plate sealers were used in place of the lids, the sealed plate was inverted several times to mix the soluble formazan product and the plate was read spectrophotometrically at 490 nm with a Molecular Devices Vmax plate reader.

[3] = target: T1, Tsg101 (Homo sapiens, UniProt Q99816); assay: Yeast two-hybrid filter lift assay for β-Gal activity (Tsg101 / p6gag interaction); format: binding; design: key to Interactions Between Tsg101 and p6gag (β-Gal activity): +: Positive β-Gal activity indicates that the p6gag wild type or mutant protein interacts with Tsg101; conditions: for ability to bind Tsg101 protein / Tsg101-p6gag interaction (in words): yeast two-hybrid
T1 construct: expressed in transfected cells
Excerpt: Yeast two-hybrid assays were utilized to determine the effect of amino acid substitution mutations in the PTAP motif of HIV p6gag on the interaction between Tsg101 and p6gag. To prepare a yeast two-hybrid activation domain-Tsg101 construct, a DNA fragment encompassing the full-length coding sequence for Tsg101 according to GenBank Accession No. U82130 was obtained by PCR from a human fetal brain cDNA library and cloned into the EcoRI/Pst1 sites of the activation domain parent plasmid GADpN2 (LEU2, CEN4, ARS1, ADH1p-SV40NLS-GAL4 (768-881)-MCS (multiple cloning site)-PGK1t, AmpR, ColE1_ori).
To prepare the yeast two-hybrid DNA binding domain-HIV1 p6gag construct, a DNA fragment corresponding to the HIV1 p6 peptide derived from the HIV1.NL43 strain GAG protein was obtained by PCR from the NL43 containing plasmid R9Δapa and was cloned into the EcoRI/Sal1 sites of the binding domain parent plasmid pGBT.Q. The sequence of the amplified insert is shown in SEQ ID NO:3485. In addition, the amino acid sequence of the HIV-1NYU/BR5 GAG is provided in GenBank under Accession No. AF324493 and is listed in SEQ ID NO:3484.
The following amino acid substitution mutations were introduced by PCR into the HIV1 p6gag sequence in the yeast two-hybrid binding domain-HIV1 p6gag construct described above. The mutations were verified by DNA sequence analysis.
To test the effect of the mutations, yeast cells of the strain Y189 purchased from Clontech (ura3-52 his3*200 ade2-101 trp1-901 leu2-3,112 met gal4 gal80 URA3::GAL1p-lacZ) were co-transformed with the activation domain-Tsg101 construct and one of the binding domain-mutant p6gag constructs or the binding domain-wild type p6gag construct. Filter lift assays for β-Gal activity were conducted by lifting the transformed yeast colonies with filters, lysing the yeast cells by freezing and thawing, and contacting the lysed cells with X-Gal. […] All binding domain constructs were also tested for self-activation of β-Gal activity.

[4] = target: T2, Full length Tsg101 (Homo sapiens, UniProt Q99816); assay: Yeast two-hybrid liquid culture β-galactosidase assay; format: binding; conditions: p6 point mutants
T2 construct: expressed in transfected cells
T2 sequence (Q99816 1-390): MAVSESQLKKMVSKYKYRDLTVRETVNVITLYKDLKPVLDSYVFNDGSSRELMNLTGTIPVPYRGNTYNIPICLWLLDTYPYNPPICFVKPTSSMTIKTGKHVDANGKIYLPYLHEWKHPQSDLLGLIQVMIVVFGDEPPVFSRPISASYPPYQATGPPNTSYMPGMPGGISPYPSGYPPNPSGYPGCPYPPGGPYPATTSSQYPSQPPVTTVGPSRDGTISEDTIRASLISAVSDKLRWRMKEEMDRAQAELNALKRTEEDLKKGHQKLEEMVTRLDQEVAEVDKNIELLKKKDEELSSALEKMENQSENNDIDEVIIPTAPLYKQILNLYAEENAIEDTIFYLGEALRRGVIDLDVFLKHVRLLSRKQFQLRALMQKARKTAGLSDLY
Description: The interactions between TSG101 and wild-type p6gag (WT) or the p6gag PTAP mutants were further quantitated by performing liquid culture β-galactosidase assays. Cultures were grown overnight in synthetic media (-Leu, -Trp, +glucose) in 96 well plates, normalized for optical density, and lysed by addition of 6× lysis/substrate solution in 6×Z-buffer (60 mM KCl, 6 mM MgSO4, 360 mM Na2HPO4, 240 mM NaH2PO4, 6 mg/ml CPRG, 0.12 U/ml lyticase, 0.075% NP-40). Cultures were incubated for 2 hr at 37° C., clarified by centrifugation, and the optical absorbance of each supernatant was measured (575 nm). Full length Tsg101 bound wild-type p6 in the two-hybrid liquid culture assay, resulting in high levels of β-galactosidase activity (>300-fold over background). […] Each of these point mutations also arrests HIV-1 budding at a late stage (Huang et al. 1995).

[5] = fresh human PBMCs, seven days following infection, RT activity
[6] = PBMC plates without virus, tetrazolium dye staining, read-out: TC50

Row | Molecule | Comments (anti-HIV activity) ([1]; fresh human PBMCs) | IC50 [1, 5] [µM] | CC50 at 7 days [2, 6] [µM] | ability to bind Tsg101 protein / Tsg101-p6gag interaction (in words) [3] | β-galactosidase activity (in words) [4] | further results
1 | C[C@H](NC(=O)[C@@H](NC(=O)[C@@H]1CCCN1C(=O)[C@H](CCC(=O)O)NC(=O)[C@@H]1CCCN1C(=O)[C@@H](N)CCCNC(=N)N)[C@@H](C)O)C(=O)N1CCC[C@H]1C(N)=O [MPI-PEP3, NH2-RPEPTAP-CO-NH2] (H-RPEPTAP-NH2) | Inactive | > 200 | > 200 | – | – | –
2 | CC(C)C[C@H](NC(=O)[C@H](C)NC(=O)[C@@H](NC(=O)[C@@H]1CCCN1C(=O)[C@H](CCC(=O)O)NC(=O)[C@@H]1CCCN1C(=O)[C@H](CCCNC(=N)N)NC(=O)[C@H](CCCNC(=N)N)NC(=O)[C@H](CCCNC(=N)N)NC(=O)[C@H](CCCNC(=N)N)NC(=O)[C@H](CCCNC(=N)N)NC(=O)[C@H](CCCNC(=N)N)NC(=O)[C@H](CCCNC(=N)N)NC(=O)[C@H](CCCNC(=N)N)NC(=O)[C@@H](N)CCCNC(=N)N)[C@@H](C)O)C(=O)N[C@@H](CCC(=O)O)C(=O)N[C@@H](CCC(=O)O)C(=O)O [MPI-PEP2, NH2-(R)9-PEPTALEE-COOH] (H-RRRRRRRRRPEPTALEE-OH) | Inactive | > 200 | > 200 | – | – | –
3 | p6(P10L) (LQSRPEPTALPEESFRFGEETTTPSQKQEPIDKELYPLASLRSLFGSDPSSQ; not fully specified) | – | – | – | abolishes the p6 binding affinity | reduced β-galactosidase activity to background levels | –
4 | p6(A9R) (LQSRPEPTRPPEESFRFGEETTTPSQKQEPIDKELYPLASLRSLFGSDPSSQ; not fully specified) | – | – | – | abolishes the p6 binding affinity | reduced β-galactosidase activity to background levels | –
5 | Cc1cn([C@H]2C[C@H](N=[N+]=[N-])[C@@H](CO)O2)c(=O)[nH]c1=O [AZT, 3′-Azido-3′-deoxythymidine, reference compound] | Control; Highly | – | – | – | – | IC50 ([1]; Human immunodeficiency virus 1, PBMC, 168 h): 0.008 µM; CC50 at 7 days [2]: > 1 µM
6 | p6(P7L) (LQSRPELTAPPEESFRFGEETTTPSQKQEPIDKELYPLASLRSLFGSDPSSQ; not fully specified) | – | – | – | abolishes the p6 binding affinity | reduced β-galactosidase activity to background levels | –
7 | C[C@H](NC(=O)[C@@H](NC(=O)[C@@H]1CCCN1C(=O)[C@H](CCC(=O)O)NC(=O)[C@@H]1CCCN1C(=O)[C@H](CCCNC(=N)N)NC(=O)[C@H](CCCNC(=N)N)NC(=O)[C@H](CCCNC(=N)N)NC(=O)[C@H](CCCNC(=N)N)NC(=O)[C@H](CCCNC(=N)N)NC(=O)[C@H](CCCNC(=N)N)NC(=O)[C@H](CCCNC(=N)N)NC(=O)[C@H](CCCNC(=N)N)NC(=O)[C@@H](N)CCCNC(=N)N)[C@@H](C)O)C(=O)N1CCC[C@H]1C(=O)N[C@@H](CCC(=O)O)C(=O)N[C@@H](CCC(=O)O)C(=O)O [MPI-PEP1, NH2-(R)9-PEPTAPEE-COOH] (H-RRRRRRRRRPEPTAPEE-OH) | Active | 21.7 | > 200 | – | – | –
8 | p6(E6G) (LQSRPGPTAPPEESFRFGEETTTPSQKQEPIDKELYPLASLRSLFGSDPSSQ; not fully specified) | – | – | – | did not result in the elimination of the Tsg101-p6gag interaction | – | Interactions Between Tsg101 and p6gag (β-Gal activity) ([3]; yeast Y189 co-transformed with activation domain-Tsg101 and binding domain-p6gag construct, filter lift, X-Gal): +; ability to bind Tsg101 protein / Tsg101-p6gag interaction (in words) ([3]; listed as E6G): capable of binding
